Test results from US12077503B2, “Substituted cyclic amides and their use as herbicides” (FMC CORPORATION, priority 2015, dated 2024).

Tests used:
Format in all cases: in vivo
corn (Zea mays) [1] = assay: Test G Post-Emergence Protocol; conditions: Zea mays, post-emergence, 312 h; for plant injury at 15.625 g/ha: 15.625 g ai/ha, evaluated after 13 days (100=total damage to plant; 0=no damage to plant), read-out: Corn damage rating; for plant injury at 62.5 g/ha: 62.5 g ai/ha, read-out: Corn damage rating (100=total damage to plant; 0=no damage to plant); for plant injury at 62.5 g/ha / plant injury at 250 g/ha: evaluated after 13 days; for plant injury at 250 g/ha: 250 g ai/ha, read-out: damage to plant, Corn (100=total damage to plant; 0=no damage to plant)
Summary of the method: (§1)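 Damage was rated 13 days after treatment from 0 (none) to 100 (plant killed). Compound was applied as a spray at 15.625, 62.5 or 250 g/ha in 50:50 acetone/water containing 0.5% Tween 20, onto 8-day-old potted plants kept in a glasshouse (24/16 °C, 14 h light, 65% humidity).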

[2] = test system: barnyardgrass (Echinochloa crus-galli); assay: Test G Post-Emergence Protocol; conditions: Echinochloa crus-galli, post-emergence, 312 h; for pest or weed control at 15.625 g/ha: 15.625 g ai/ha, evaluated after 13 days (100=total damage to plant; 0=no damage to plant), read-out: Barnyardgrass damage rating; for pest or weed control at 62.5 g/ha: 62.5 g ai/ha, read-out: Barnyardgrass damage rating (100=total damage to plant; 0=no damage to plant); for pest or weed control at 62.5 g/ha / pest or weed control at 250 g/ha: evaluated after 13 days; for pest or weed control at 250 g/ha: 250 g ai/ha, read-out: damage to plant, Barnyardgrass (100=total damage to plant; 0=no damage to plant)
Summary of the method: as §1

[3] = test system: redroot pigweed (Amaranthus retroflexus); assay: Test G Post-Emergence Protocol; conditions: Amaranthus retroflexus, post-emergence, 312 h; for pest or weed control at 15.625 g/ha: 15.625 g ai/ha, evaluated after 13 days (100=total damage to plant; 0=no damage to plant), read-out: Pigweed, Redroot damage rating; for pest or weed control at 62.5 g/ha: 62.5 g ai/ha, read-out: Pigweed, Redroot damage rating (100=total damage to plant; 0=no damage to plant); for pest or weed control at 62.5 g/ha / pest or weed control at 250 g/ha: evaluated after 13 days; for pest or weed control at 250 g/ha: 250 g ai/ha, read-out: damage to plant, Pigweed, Redroot (100=total damage to plant; 0=no damage to plant)
Summary of the method: as §1

[4] = test system: giant foxtail (Setaria faberi); assay: Test G Post-Emergence Protocol; conditions: Setaria faberi, post-emergence, 312 h; for pest or weed control at 15.625 g/ha: 15.625 g ai/ha, evaluated after 13 days (100=total damage to plant; 0=no damage to plant), read-out: Foxtail, Giant damage rating; for pest or weed control at 62.5 g/ha: 62.5 g ai/ha, read-out: Foxtail, Giant damage rating (100=total damage to plant; 0=no damage to plant); for pest or weed control at 62.5 g/ha / pest or weed control at 250 g/ha: evaluated after 13 days; for pest or weed control at 250 g/ha: 250 g ai/ha, read-out: damage to plant, Foxtail, Giant (100=total damage to plant; 0=no damage to plant)
Summary of the method: as §1

[5] = test system: velvetleaf (Abutilon theophrasti); assay: Test G Post-Emergence Protocol; conditions: Abutilon theophrasti, post-emergence, 312 h; for pest or weed control at 15.625 g/ha: 15.625 g ai/ha, evaluated after 13 days (100=total damage to plant; 0=no damage to plant), read-out: Velvetleaf damage rating; for pest or weed control at 62.5 g/ha: 62.5 g ai/ha, read-out: Velvetleaf damage rating (100=total damage to plant; 0=no damage to plant); for pest or weed control at 62.5 g/ha / pest or weed control at 250 g/ha: evaluated after 13 days; for pest or weed control at 250 g/ha: 250 g ai/ha, read-out: damage to plant, Velvetleaf (100=total damage to plant; 0=no damage to plant)
Summary of the method: as §1

[6] = test system: ivy-leaved morning glory (Ipomoea hederacea); assay: Test G Post-Emergence Protocol; conditions: Ipomoea, post-emergence, 312 h; for pest or weed control at 15.625 g/ha: 15.625 g ai/ha, evaluated after 13 days (100=total damage to plant; 0=no damage to plant), read-out: Morningglory, Ivy-leaved damage rating; for pest or weed control at 62.5 g/ha: 62.5 g ai/ha, read-out: Morningglory, Ivy-leaved damage rating (100=total damage to plant; 0=no damage to plant); for pest or weed control at 62.5 g/ha / pest or weed control at 250 g/ha: evaluated after 13 days; for pest or weed control at 250 g/ha: 250 g ai/ha, read-out: damage to plant, Morningglory, Ivy-leaved (100=total damage to plant; 0=no damage to plant)
Summary of the method: as §1

corn (Zea mays) [7] = assay: Test G Pre-Emergence Protocol; conditions: Zea mays, pre-emergence, 312 h, evaluated after 13 days; for plant injury at 15.625 g/ha: 15.625 g ai/ha; for plant injury at 15.625 g/ha / plant injury at 250 g/ha: read-out: Corn damage rating (100=total damage to plant; 0=no damage to plant); for plant injury at 62.5 g/ha: 62.5 g ai/ha, 100=total damage to plant, 0=no damage to plant, read-out: plant damage rating, Corn; for plant injury at 250 g/ha: 250 g ai/ha
Summary of the method: (§2)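 Herbicidal effect was rated 13 days post-application on a scale where 100 equals total damage. Spraying took place the day after sowing, using 15.625, 62.5 or 250 g/ha of compound in a 50:50 acetone/water solution with 0.5% Tween 20.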

[8] = test system: barnyardgrass (Echinochloa crus-galli); assay: Test G Pre-Emergence Protocol; conditions: Echinochloa crus-galli, pre-emergence, 312 h, evaluated after 13 days; for pest or weed control at 15.625 g/ha: 15.625 g ai/ha, read-out: Barnyard grass damage rating (100=total damage to plant; 0=no damage to plant); for pest or weed control at 62.5 g/ha: 62.5 g ai/ha, 100=total damage to plant, 0=no damage to plant, read-out: plant damage rating, Barnyardgrass; for pest or weed control at 250 g/ha: 250 g ai/ha, read-out: Barnyardgrass damage rating (100=total damage to plant; 0=no damage to plant)
Summary of the method: as §2

[9] = test system: redroot pigweed (Amaranthus retroflexus); assay: Test G Pre-Emergence Protocol; conditions: Amaranthus retroflexus, pre-emergence, 312 h, evaluated after 13 days; for pest or weed control at 15.625 g/ha: 15.625 g ai/ha; for pest or weed control at 15.625 g/ha / pest or weed control at 250 g/ha: read-out: Pigweed, Redroot damage rating (100=total damage to plant; 0=no damage to plant); for pest or weed control at 62.5 g/ha: 62.5 g ai/ha, 100=total damage to plant, 0=no damage to plant, read-out: plant damage rating, Pigweed, Redroot; for pest or weed control at 250 g/ha: 250 g ai/ha
Summary of the method: as §2

[10] = test system: giant foxtail (Setaria faberi); assay: Test G Pre-Emergence Protocol; conditions: Setaria faberi, pre-emergence, 312 h, evaluated after 13 days; for pest or weed control at 15.625 g/ha: 15.625 g ai/ha; for pest or weed control at 15.625 g/ha / pest or weed control at 250 g/ha: read-out: Foxtail, Giant damage rating (100=total damage to plant; 0=no damage to plant); for pest or weed control at 62.5 g/ha: 62.5 g ai/ha, 100=total damage to plant, 0=no damage to plant, read-out: plant damage rating, Foxtail, Giant; for pest or weed control at 250 g/ha: 250 g ai/ha
Summary of the method: as §2

[11] = test system: velvetleaf (Abutilon theophrasti); assay: Test G Pre-Emergence Protocol; conditions: Abutilon theophrasti, pre-emergence, 312 h, evaluated after 13 days; for pest or weed control at 15.625 g/ha: 15.625 g ai/ha; for pest or weed control at 15.625 g/ha / pest or weed control at 250 g/ha: read-out: Velvetleaf damage rating (100=total damage to plant; 0=no damage to plant); for pest or weed control at 62.5 g/ha: 62.5 g ai/ha, 100=total damage to plant, 0=no damage to plant, read-out: plant damage rating, Velvetleaf; for pest or weed control at 250 g/ha: 250 g ai/ha
Summary of the method: as §2

[12] = test system: ivy-leaved morning glory (Ipomoea hederacea); assay: Test G Pre-Emergence Protocol; conditions: Ipomoea, pre-emergence, 312 h, evaluated after 13 days; for pest or weed control at 15.625 g/ha: 15.625 g ai/ha, read-out: Morning-glory, Ivy-leaved damage rating (100=total damage to plant; 0=no damage to plant); for pest or weed control at 62.5 g/ha: 62.5 g ai/ha, 100=total damage to plant, 0=no damage to plant, read-out: plant damage rating, Morningglory, Ivy-leaved; for pest or weed control at 250 g/ha: 250 g ai/ha, read-out: Morningglory, Ivy-leaved damage rating (100=total damage to plant; 0=no damage to plant)
Summary of the method: as §2

Row | Structure (SMILES) | plant injury at 15.625 g/ha (corn (Zea mays) [1]) | plant injury at 62.5 g/ha (corn (Zea mays) [1]) | plant injury at 250 g/ha (corn (Zea mays) [1]) | pest or weed control at 15.625 g/ha [2] | pest or weed control at 62.5 g/ha [2] | pest or weed control at 250 g/ha [2] | pest or weed control at 15.625 g/ha [3] | pest or weed control at 62.5 g/ha [3] | pest or weed control at 250 g/ha [3] | pest or weed control at 15.625 g/ha [4] | pest or weed control at 62.5 g/ha [4] | pest or weed control at 250 g/ha [4] | pest or weed control at 15.625 g/ha [5] | pest or weed control at 62.5 g/ha [5] | pest or weed control at 250 g/ha [5] | pest or weed control at 15.625 g/ha [6] | pest or weed control at 62.5 g/ha [6] | pest or weed control at 250 g/ha [6] | plant injury at 15.625 g/ha (corn (Zea mays) [7]) | plant injury at 62.5 g/ha (corn (Zea mays) [7]) | other results
1 | CN1C[C@@H](c2ccc(C(F)(F)F)cc2)[C@H](C(=O)Nc2cnccn2)C1=O (racemic) [Compound 1572] | 0% | 0% | 0% | 0% | 0% | 0% | 0% | 0% | 20% | 0% | 0% | 40% | 0% | 0% | 0% | 0% | 10% | 30% | 0% | 0% | plant injury at 250 g/ha (corn (Zea mays) [7]): 0%; pest or weed control at 15.625 g/ha [8]: 0%; pest or weed control at 62.5 g/ha [8]: 0%; pest or weed control at 250 g/ha [8]: 0%; pest or weed control at 15.625 g/ha [9]: 0%; pest or weed control at 62.5 g/ha [9]: 0%; pest or weed control at 250 g/ha [9]: 0%; pest or weed control at 15.625 g/ha [10]: 0%; pest or weed control at 62.5 g/ha [10]: 0%; pest or weed control at 250 g/ha [10]: 0%; pest or weed control at 15.625 g/ha [11]: 0%; pest or weed control at 62.5 g/ha [11]: 0%; pest or weed control at 250 g/ha [11]: 0%; pest or weed control at 15.625 g/ha [12]: 0%; pest or weed control at 62.5 g/ha [12]: 0%; pest or weed control at 250 g/ha [12]: 0%
2 | CN1C[C@H](c2ccc(C(F)(F)F)cc2)[C@@H](C(=O)Nc2ccc(F)c(C(F)(F)F)c2)C1=O (racemic) [Compound 1443] | 0% | 0% | 0% | 0% | 0% | 0% | 0% | 0% | 0% | 0% | 0% | 0% | 0% | 0% | 0% | 0% | 0% | 0% | 0% | 0% | plant injury at 250 g/ha (corn (Zea mays) [7]): 0%; pest or weed control at 15.625 g/ha [8]: 0%; pest or weed control at 62.5 g/ha [8]: 0%; pest or weed control at 250 g/ha [8]: 0%; pest or weed control at 15.625 g/ha [9]: 0%; pest or weed control at 62.5 g/ha [9]: 0%; pest or weed control at 250 g/ha [9]: 0%; pest or weed control at 15.625 g/ha [10]: 0%; pest or weed control at 62.5 g/ha [10]: 0%; pest or weed control at 250 g/ha [10]: 0%; pest or weed control at 15.625 g/ha [11]: 0%; pest or weed control at 62.5 g/ha [11]: 0%; pest or weed control at 250 g/ha [11]: 0%; pest or weed control at 15.625 g/ha [12]: 0%; pest or weed control at 62.5 g/ha [12]: 0%; pest or weed control at 250 g/ha [12]: 0%
